From article PMC6836644, “A multiple classifier system identifies novel cannabinoid CB2 receptor ligands” (Journal of Cheminformatics, 2019)

Biological target: T1, human CB2 receptor (Homo sapiens, UniProt P34972)
T1 construct: beta-galactosidase fragment (the cell line's name says 'bgal'; own knowledge: PathHunter enzyme-fragment-complementation lines carry a small beta-gal fragment fused to the receptor's C-terminus); host or cells: CHO-K1 (CHOK1hCB2_bgal), membranes
Experiment: [3H]CP55940 displacement assay
Assay type: binding
Conditions: for pKi ± SEM: [3H]CP55940 (~1.5 nM) displacement, CHOK1hCB2_bgal membranes, 25 °C, 2 h, three separate experiments in duplicate; for % displacement of the radioligand: 10 μM of the compound, [3H]CP55940, CHOK1hCB2_bgal membranes
Procedure: CHOK1hCB2_bgal cells (DiscoverRx, Fremont, CA, USA) were cultured in Dulbecco’s Modified Eagle’s Medium/Nutrient Mixture F-12 Ham supplemented with 10% fetal calf serum, 1 mM glutamine, 50 µg/mL penicillin, 50 µg/mL streptomycin, […] hygromycin and 800 µg/mL geneticin in a humidified atmosphere at 37 °C and 5% CO2. Cells were subcultured twice a week at a ratio of 1:20 on 10-cm diameter plates by trypsinization. For membrane preparation, the cells were subcultured with a ratio of 1:10 and transferred to 15-cm diameter plates. The cells were collected by scraping in 5 mL phosphate-buffered saline (PBS) and centrifuged at 1000 g for 5 min. Pellets derived from 30 plates were combined and resuspended in 20 mL cold Tris–HCl, MgCl2 buffer (50 mM Tris–HCl (pH 7.4), 5 mM MgCl2). The cell suspension was homogenized using an UltraTurrax homogenizer (Heidolph Instruments Schwabach, Germany). Membranes and cytosolic fractions were separated by centrifugation in a Beckman Optima LE-80 K ultracentrifuge (Beckman Coulter Inc., Fullerton, CA, USA) at 100,000 g for 20 min at 4 °C. The supernatant was discarded. The pellet was resuspended in 10 mL cold Tris–HCl, MgCl2 buffer and homogenization and centrifugation steps were repeated. The membranes were resuspended in 10 mL cold Tris–HCl, MgCl2 buffer. Aliquots of 50 µL were stored at -80 °C until further use. The protein concentration was determined using the Pierce™ BCA Protein Assay Kit (ThermoFisher Scientific, Waltham, MA, USA).
At first, all compounds were tested at a final concentration of 10 µM. […] Six different concentrations of the compounds were added by an HP D300 digital dispenser (Tecan Group Ltd, Männedorf, Switzerland). In order to determine the total binding, a control without test compound was included. Nonspecific binding was determined in the presence of 10 µM AM630. The total assay volume was 100 µL. The final concentration of DMSO was ≤ 0.25%. The incubation was terminated by rapid vacuum filtration through GF/C 96-well filter plates (PerkinElmer, Waltham, MA), to separate the bound and free radioligand, using a PerkinElmer Filtermate-harvester (PerkinElmer, Groningen, The Netherlands). Filters were subsequently washed […] with ice-cold assay buffer. The filter-bound radioactivity was determined by scintillation spectrometry using a Microbeta2® 2450 microplate counter (PerkinElmer, Boston, MA), after addition of 25 μl MicroScint 20 (PerkinElmer, Groningen, The Netherlands) and 3 h incubation.
All experimental data were analyzed using GraphPad Prism 7 [36]. The data were normalized to percentage specific radioligand binding, where the total binding is 100% and nonspecific binding is 0%. […] All data were obtained from three separate experiments performed in duplicate.

T1 sequence (P34972 whole entry, the tested form may be a part): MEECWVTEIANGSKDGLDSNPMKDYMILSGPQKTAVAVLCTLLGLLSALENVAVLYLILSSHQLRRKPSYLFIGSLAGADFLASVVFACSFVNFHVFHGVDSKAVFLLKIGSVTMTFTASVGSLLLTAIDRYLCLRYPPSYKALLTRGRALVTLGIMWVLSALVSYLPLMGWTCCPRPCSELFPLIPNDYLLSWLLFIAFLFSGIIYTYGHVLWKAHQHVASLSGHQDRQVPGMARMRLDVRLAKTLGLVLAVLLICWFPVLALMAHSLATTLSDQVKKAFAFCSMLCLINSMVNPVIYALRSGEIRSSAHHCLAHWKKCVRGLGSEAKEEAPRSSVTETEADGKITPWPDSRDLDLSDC

Cc1ccc(NC(=O)C2CCC(C(C)(C)C)CC2)cc1S(=O)(=O)N1CCOCC1 (centres unmarked) [Z26476746] was tested, and the “pKi ± SEM” value was 6.54 ± 0.14.

With CCn1cc(C(=O)NCC2(N3CCOCC3)CCCCC2)c(=O)c2ccc(C)nc21 [Z27019562] the “% displacement of the radioligand” value was 30%.

CCOC(=O)c1c(NC(=O)CC23CC4CC(CC(C4)C2)C3)sc2c1CCCC2 [Z27680708] was tested, and the “pKi ± SEM” value was 7.46 ± 0.32.

Cc1nn(-c2ccccc2)c2sc(C(=O)NC34CC5CC(CC(C5)C3)C4)cc12 [Z27687279] was tested, and the “% displacement of the radioligand” value was 38%.

Cc1ccc(C(=O)NC23CC4CC(CC(C4)C2)C3)cc1S(=O)(=O)N1CCCCC1 [Z27687312] was tested, and the “pKi ± SEM” value was 7.22 ± 0.46.

For CC1(C)C2CCC1(C)C(NC(=O)C1CCN(S(=O)(=O)c3ccc(F)c(F)c3)CC1)C2 (centres unmarked) [Z28357392], the “% displacement of the radioligand” value was 26%.

In the case of CCCCn1nc(C(=O)NC2CC3CCC2(C)C3(C)C)c2ccccc2c1=O (centres unmarked) [Z28357657], the “pKi ± SEM” value is reported as 6.81 ± 0.29.

CCC(NC(=O)c1cccc(S(=O)(=O)N2CCOCC2)c1)C12CC3CC(CC(C3)C1)C2 (centres unmarked) [Z28609248] was tested, and the “% displacement of the radioligand” value was 16%.

For Cc1ccc(C(=O)NC2CCCC(C)C2C)cc1S(=O)(=O)N1CCOCC1 (centres unmarked) [Z32934509], the “pKi ± SEM” value was 6.47 ± 0.02.

In the case of CC1(C)C2CC=C(/C=N/NC(=O)CCc3ccc(S(=O)(=O)N4CCOCC4)cc3)C1C2 (centres unmarked) [Z44867007], the “% displacement of the radioligand” value is reported as 0%.

For COc1ccc(C=C(C(=O)NC2CCCCC2)C(=O)NC2CCCCC2)cc1OC [Z46091805], the “% displacement of the radioligand” value was 38%.

For CCN(CC)c1ccc(S(=O)(=O)N2CCOCC2)cc1NS(=O)(=O)CC12CCC(CC1=O)C2(C)C (centres unmarked) [Z55473655], the “% displacement of the radioligand” value was 7%.

For CCC(C)(C)C1CCC(NC(=O)c2cc(S(=O)(=O)N3CCOCC3)ccc2C)CC1 (centres unmarked) [Z91179667], the “% displacement of the radioligand” value was 29%.

For CCc1ccc(C(=O)NC(C)C23CC4CC(CC(C4)C2)C3)cc1S(=O)(=O)N1CCOCC1 (centres unmarked) [Z336532434], the “pKi ± SEM” value was 7.67 ± 0.17.

With CC(C)C(NC(=O)CN1CCN(c2nccn2C)CC1)c1ccc2c(c1)OCCCO2 (centres unmarked) [Z1317886912] the “% displacement of the radioligand” value was 3%.

In the case of CC1(CN2CCOCC2)CCN(CC(=O)N2CCc3sccc3C2)CC1 [Z1523102560], the “% displacement of the radioligand” value is reported as 18%.

With COc1ccc2c(c1)c(C(=O)N(C)CC(C)OC)c(C)n2C1CC1 (centres unmarked) [Z2094674960] the “% displacement of the radioligand” value was 0%.
